Tests used:
L-DOPA decarboxylase = assay: Carbidopa inhibition of dopamine production by ML1082 in sSIM; format: cell-based, E. faecium; details: strain ML1082, sSIM
Method: A L-DOPA rich diet or a commonly prescribed 100 mg dose of L-DOPA would yield a concentration of about 1.0×10^−3 M concentration in sSIM. It follows then that a tablet that has 1:10 Carbidopa:L-DOPA tablet would likely result in a Carbidopa concentration of approximately 1/10th that on the order of 1.0×10^−4M (−log [Carbidopa]=4).
The IC50 was similar to the L-DOPA concentration of 1.26×10^−3 M, a finding that may indicate a competitive inhibitory mechanism for the bacterial enzyme.

[1] = mice, L-DOPA source in feed
Method: Feed was prepared in one of two ways depending on the source of L-DOPA. […] For purified L-DOPA, 1 g of purified L-DOPA is mixed in a 1:200 ratio with the feed powder. The mixed feed is then added to additional feed powder in a 1:4 ratio, creating a 1 mg/g L-DOPA feed.
For the 12-day trial 10 mice were placed in each group of control mice given feed plus the PBS gavage, a probiotic supplemented diet of normal feed plus a 1×10^9 CFU gavage of ML1082, and a synbiotic diet of feed with 1 mg/g supplemented pure L-DOPA and a 1×10^9 CFU gavage of ML1082. Behavioral testing was performed on days 11 and 12 (see below), followed by sacrifice and sample collection for UHPLC-ECD as above.

distal colon = details: read-out: EC50 of maximal response; cited from earlier work
circular muscle = details: read-out: EC50, induced contractions; cited from earlier work
longitudinal muscle = details: read-out: EC50, relaxation; cited from earlier work
E. coli = tested on: E. coli
Text: Although this is a well-established finding, the chemical-mechanistic effects of catecholamines on prokaryotes are relatively poorly understood. Neurochemical exposure has the potential not only to alter growth profiles and behavior, but it also appears to trigger the production of unique chemicals.

In the case of `C[C@@](Cc1ccc(O)c(O)c1)(NN)C(=O)O` [Carbidopa], the “inhibition of dopamine production” value (L-DOPA decarboxylase) is reported as “dose-dependent inhibition”.

For `N[C@@H](Cc1ccc(O)c(O)c1)C(=O)O` [L-DOPA, L-3,4-dihydroxyphenylalanine], the “uptake of L-DOPA into the body before conversion by the probiotic” value [1] was “absorbed into the body before it could interact with the probiotics”.

For `NCCc1ccc(O)c(O)c1` [dopamine], the EC50 (distal colon) is listed as 20 µM, the EC50 (circular muscle) is listed as 6.3 µM and the EC50 (longitudinal muscle) is listed as 29 µM. For the same compound, the “production of the dopamine-induced compound by E. coli” value (E. coli; LB supplied with dopamine, FIG. 6F) was “little if any of this compound” and the “chemical response of E. coli” value (E. coli; sSIM spiked with 0.001 M dopamine) was “novel chemical response”.

Reference: US12440519B2 (Iowa State University Research Foundation, Inc., priority 2017, dated 2025)
